Results: paper PMC9122903, “First purified recombinant CYP75B including transmembrane helix with unexpected high substrate specificity to (2R)-naringenin” (Scientific Reports, 2022)

Experiments:
Test in all cases: hydroxylation, product quantified by HPLC-DAD ([…] nm)
Assay type in all cases: biochemical, Dahlia pinnata
Conditions in all cases: 1.55 mM NADPH, CrCPR microsomes, pH 7.5, 30 °C
[1] = test system: T1, DvCH3H (chalcone 3-hydroxylase)
T1 construct: gene CH3H; assayed with yeast microsomes containing recombinant Catharanthus roseus CPR (GenBank X69791.1); with NADPH--cytochrome P450 reductase (Catharanthus roseus)

[2] = test system: T1, DvCH3H (chalcone 3-hydroxylase); remark: listed apart in the source
[3] = test system: T1, DvCH3H (chalcone 3-hydroxylase); remark: listed apart in the source

## O=C1CC(c2ccc(O)cc2)Oc2cc(O)cc(O)c21 (racemic) [Racemic Naringenin]
[1]; racemic mixture
  Km: 0.402 ± 0.046 µM

## O=C1C[C@H](c2ccc(O)cc2)Oc2cc(O)cc(O)c21 [(2R)-Naringenin]
[1]
  Km: 0.408 ± 0.015 µM

## O=C1C[C@@H](c2ccc(O)cc2)Oc2cc(O)cc(O)c21 [(2S)-Naringenin]
[1]
  Km: 0.76 ± 0.094 µM

## O=c1cc(-c2ccc(O)cc2)oc2cc(O)cc(O)c12 [Apigenin]
[2]
  Km: 0.329 ± 0.007 µM

## O=c1c(O)c(-c2ccc(O)cc2)oc2cc(O)cc(O)c12 [Kaempferol]
[3]
  Km: 0.622 ± 0.069 µM
